Values of other authors as cited in patent US20130071871A1, “ENZYMATIC DETERMINATION OF LITHIUM IONS USING PHOSPHOGLUCOMUTASE” (SPECIALTY ASSAYS, INC., priority 2011, published 2013).

Structure (SMILES): [Li] [Lithium]
- highly toxic level (level chosen for the elevated lithium standard, well above the therapeutic range): ~3 mmol/L
- serum level too high, severe toxic side effects can occur (serum): > 1200 µM
